# Results taken from patent publication US9044409B2, “Use of chromen-4-one derivatives” (Merck Patent GmbH, priority 2003, dated 2015).
# How the values were obtained:
# keratinocyte cultures = details: cited from earlier work
# [1] = biological target: T1, elastase (from human leukocytes) (Homo sapiens, UniProt P08246); assay: Action on the activity of leukocyte elastase (fluorescence, elastin substrate); type: biochemical
# T1 construct: elastase (from human leukocytes; Sigma E8140; 100 mU/well); purchased Sigma E8140; host or cells: human leukocytes
# T1 sequence (P08246 30-267): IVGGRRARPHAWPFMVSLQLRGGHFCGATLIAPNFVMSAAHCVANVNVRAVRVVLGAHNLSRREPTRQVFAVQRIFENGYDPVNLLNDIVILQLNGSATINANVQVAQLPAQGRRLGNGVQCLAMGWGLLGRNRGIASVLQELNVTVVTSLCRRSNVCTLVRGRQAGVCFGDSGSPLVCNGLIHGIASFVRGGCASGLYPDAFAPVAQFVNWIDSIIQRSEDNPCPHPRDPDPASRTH
# Method: 5,7-Dihydroxy-2-methylchromen-4-one in TRIS buffer (500 mM) is incubated for 10 minutes on ice with elastase (from human leukocytes; Sigma E8140; 100 mU/well). 5 μg/well of elastin are subsequently added, and the plates are incubated at 37° C. for 2 hours. The fluorescence is determined using a Spectromax Gemini spectrometer (Molecular Devices) at λex=485 nm and λem=538 nm.
# [2] = biological target: T2, hyaluronidase (HYAL, Sigma type IV-S, H3884) (Bos taurus, UniProt Q2YDK3); assay: Action on the activity of hyaluronidase (remaining hyaluronic acid determined photometrically); type: biochemical; details: for Hyaluronidase activity: control (no LU) = 100
# T2 construct: hyaluronidase (HYAL, Sigma type IV-S, H3884)
# T2 sequence (Q2YDK3 1-553): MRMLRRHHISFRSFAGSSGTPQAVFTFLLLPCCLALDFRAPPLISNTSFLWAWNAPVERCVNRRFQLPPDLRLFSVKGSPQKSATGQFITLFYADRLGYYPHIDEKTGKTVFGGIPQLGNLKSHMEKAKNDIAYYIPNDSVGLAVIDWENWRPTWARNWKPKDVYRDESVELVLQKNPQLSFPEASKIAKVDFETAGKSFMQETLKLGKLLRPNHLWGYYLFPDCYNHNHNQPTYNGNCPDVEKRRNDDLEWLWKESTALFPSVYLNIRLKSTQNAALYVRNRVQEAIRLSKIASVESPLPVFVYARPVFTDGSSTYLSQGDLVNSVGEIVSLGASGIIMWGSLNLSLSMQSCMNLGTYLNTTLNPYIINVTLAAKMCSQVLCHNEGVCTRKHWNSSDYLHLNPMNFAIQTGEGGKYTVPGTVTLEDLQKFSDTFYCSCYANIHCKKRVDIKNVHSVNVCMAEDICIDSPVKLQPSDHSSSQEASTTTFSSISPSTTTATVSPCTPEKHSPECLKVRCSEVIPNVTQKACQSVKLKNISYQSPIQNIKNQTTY
# Method: 5,7-Dihydroxy-2-methylchromen-4-one in phosphate buffer (0.1 M) is pre-incubated with hyaluronidase (HYAL, Sigma type IV-S, H3884; 1 mg/l in phosphate buffer (0.1 M)). Hyaluronic acid (HA, Sigma H-1876; 1.2 mg/ml) is subsequently added, and the mixture is incubated at 37° C. for 1 hour. The remaining hyaluronic acid (HA) is subsequently precipitated using serum albumen (BSA, Sigma A7888) and determined photometrically.
# [3] = test system: PGE2 release from human keratinocytes (cell line NCTC R13); assay: Antiinflammatory properties (PGE2 assay): PMA-induced PGE2 release, ELISA; type: cell-based; details: for PGE2: PMA-stimulated, 24 h; for PGE2 release % compared with control: control (only PMA) = 100
# Method: Human keratinocytes of the cell line NCTC R13 are pre-cultivated for 24 hours at 37° C. in a 5% CO2 atmosphere with DMEM culture medium (Life Technologies). The cells are treated with LU for 24 hours, and the culture medium is then removed. A fresh culture medium containing the inflammation-triggering active ingredient phorbol myristate acetate (PMA; […]) and LU is added. After incubation for 24 hours, the culture medium is collected and analysed. By means of an ELISA DE0100 kit (R&D Systems), the release is used in order to investigate the release of the inflammation marker prostaglandin E2 (PGE2) (Table).
# [4] = over the entire pH range; cited from earlier work
structure (smiles),measurement,setting,value
"O=C1CCOc2ccccc21 [Example 4-chromanone, 4-chromanone]",cell differentiation,keratinocyte cultures,promotes cell differentiation
same,lipid production,keratinocyte cultures,stimulates lipid production
"Cc1cc(=O)c2c(O)cc(O)cc2o1 [LU, 5,7-dihydroxy-2-methylchromen-4-one]",% quenching,[1]; 40 μM LU,0%
same,Fluorescence intensity,[1]; 40 μM LU,2195.9
same,inhibition at 40 µM,[1]; 40 μM LU,10%
same,remaining activity at 40 µM,"[1]; 40 μM LU, neg. control = 100, read-out: Elastase activity % compared with control",90%
same,% quenching,[1]; 200 μM LU,19%
same,Fluorescence intensity,[1]; 200 μM LU,1096.4
same,inhibition at 200 µM,[1]; 200 μM LU,45%
same,remaining activity at 200 µM,"[1]; 200 μM LU, neg. control = 100, read-out: Elastase activity % compared with control",45%
same,Inhibition of the elastase activity (in words),[1]; doses of 200 μM and 40 μM,clear inhibition of the elastase activity
same,inhibition at 3125 µM,[2]; 3.125 mM LU,9%
same,Hyaluronidase activity,[2]; 3.125 mM LU,91
same,inhibition at 6250 µM,[2]; 6.25 mM LU,19%
same,Hyaluronidase activity,[2]; 6.25 mM LU,81
same,inhibition at 12500 µM,[2]; 12.5 mM LU,37%
same,Hyaluronidase activity,[2]; 12.5 mM LU,63
same,inhibition at 25000 µM,[2]; 25 mM LU,63%
same,Hyaluronidase activity,[2]; 25 mM LU,37
same,Inhibition of hyaluronidase activity (in words),[2]; in the doses investigated (3.125-25 mM),clear inhibition of hyaluronidase activity
same,PGE2,[3]; 0.008 mM LU,340.62 ng/mL
same,PGE2 release % compared with control,[3]; 0.008 mM LU,113%
same,PGE2,[3]; 0.04 mM LU,226.39 ng/mL
same,PGE2 release % compared with control,[3]; 0.04 mM LU,75%
same,PGE2,[3]; 0.2 mM LU,6.31 ng/mL
same,PGE2 release % compared with control,[3]; 0.2 mM LU,2%
same,PGE2 release on exposure to PMA (in words),[3]; doses of 0.2 mM and 0.04 mM,clear reduction in PGE2 release
"O=c1c(O)c(-c2ccc(O)c(O)c2)oc2cc(O)cc(O)c12 [Quercetin, 3,3′,4′,5,7-pentahydroxyflavone]",antioxidant activity,[4],greatest activity amongst the structures investigated
